Source: patent publication US11950596B2, “Methods of protecting seeds from oxidants and microorganisms” (The United States of America, as represented by the …, priority 2020, dated 2024)
Where two headings read alike, the source gives them in different places. Marks after values point to notes of the source that are not given here.

Tests used:
A. brasiliensis 16404 = assay: Heat-sensitizing bioassay of OG (MFC) in other fungi; format: cell-based, Aspergillus brasiliensis; settings: 90 seconds
Protocol: (§1) As described in A. flavus 3357 test (see above), microfuge tubes were treated with mild heat (57.5° C.) or maintained at RT (22.0° C.) (90 seconds). After heat treatments, entire volume (200 μL) from each microfuge tube was spread onto fresh recovery LB agar (for bacteria) or PDA (for fungi), and plates were incubated at the optimum temperature for respective microorganisms (i.e., 35° C. for Aspergillus, 37° C. for E. coli, 28° C. for Penicillium/A. tumefaciens, respectively). The growth/survival of test microorganisms were monitored after 48 to 72 hrs of incubation.
(§2) Heat-sensitizing activity of OG against other fungi: Heat-sensitizing activity of OG was then investigated in other fungi (five Aspergillus strains and seven Penicillium strains) including fungicide resistant strains (i.e., P. expansum FR2, FR3 resistant to the conventional fungicide fludioxonil) (see Table 1).

P. italicum 983 = assay: as above; format: cell-based, Penicillium italicum; settings: 90 seconds
Protocol: as §1, §2

P. griseofulvum 2159 = assay: as above; format: cell-based, Penicillium griseofulvum; settings: 90 seconds
Protocol: as §1, §2

[1] = tested on: Brassica rapa Pekinensis seeds; assay: Seed disinfection bioassay, germination of treated cabbage seeds; format: in vivo; settings: for No. of seedlings germinated: 12 seeds; for % Seed germination: mean over 20/50° C. and 20/30 min
Protocol: Antifungal seed disinfection bioassays using OG: Effect of OG plus mild heat hurdle technology on the level of seed sanitation (Brassica rapa Pekinensis; Chinese cabbage hybrid) was evaluated. Twelve cabbage seeds (per treatment), unsterilized, were transferred to each 1.5 mL microcentrifuge tube filled with 1 mL (final volume) distilled water, without or with A. flavus (1×10^5 CFU/mL): (1) No OG, no A. flavus inoculum, 20 or 30 min, 20° C.; (2) No OG, no A. flavus inoculum, 20 or 30 min, 50° C.; (3) No OG, w/A. flavus, 20 or 30 min, 20° C.; (4) No OG, w/A. flavus, 20 or 30 min, 50° C.; (5) OG 2 mM, w/A. flavus, 20 or 30 min, 20° C., (6) OG 2 mM, w/A. flavus, 20 or 30 min, 50° C., (7) OG 3 mM, w/A. flavus, 20 or 30 min, 20° C.; (8) OG 3 mM, w/A. flavus, 20 or 30 min, 50° C.; (9) OG 4 mM, w/A. flavus, 20 or 30 min, 20° C.; and (10) OG 4 mM, w/A. flavus, 20 or 30 min, 50° C. After each treatment, the treated seeds (total 12 seeds per treatment) were transferred to PDA and the plates were incubated in the dark at room temperature (RT; 20° C.) for seed germination. After seed germination, the growth of seedlings and fungal germination on the surfaces of germinated seeds were monitored up to 7 days (RT).
Seed disinfection via heat-sensitizing activity of OG: Heat-sensitizing capacity of OG was investigated further with crop seeds (Brassica rapa Pekinensis; Chinese cabbage hybrid) contaminated with A. flavus 3357 on the seed surfaces. OG (0, 2, 3, 4 mM) and mild heat (50° C.; Control: 20° C.) were co-applied for 20 to 30 minutes, and the rates of seed germination were also determined.

E. coli JM109 = assay: Heat-sensitizing bioassay of OG (MBC) in bacteria; format: cell-based; settings: Escherichia coli, 90 seconds, read-out: minimum bactericidal concentration (MBC) of OG
Protocol: as §1
(§3) Heat-sensitizing activity of OG against bacteria (A. tumefaciens, E. coli): Heat-sensitizing activity of OG was also investigated against bacterial cells (i.e., E. coli and plant-pathogenic A. tumefaciens). […] (Table 4; FIG. 2).

A. tumefaciens 4212 = assay: Heat-sensitizing bioassay of OG (MBC) in bacteria; format: cell-based, Agrobacterium tumefaciens; settings: 90 seconds, read-out: minimum bactericidal concentration (MBC) of OG
Protocol: as §1, §3

A. parasiticus 5862 = assay: Heat-sensitizing bioassay of OG (MFC) in other fungi; format: cell-based, Aspergillus parasiticus; settings: 90 seconds
Protocol: as §1, §2

A. parasiticus 2999 = assay: as above; format: cell-based, Aspergillus parasiticus; settings: 90 seconds
Protocol: as §1, §2

[2] = tested on: A. tumefaciens or E. coli; assay: Heat-sensitizing bioassay of OG, average MBC of bacteria; format: cell-based, Agrobacterium tumefaciens, Escherichia coli; settings: 90 seconds
Protocol: as §1, §3

P. chrysogenum 824 = assay: Heat-sensitizing bioassay of OG (MFC) in other fungi; format: cell-based, Penicillium chrysogenum; settings: 90 seconds
Protocol: as §1, §2

SMILES: CCCCCCCCOC(=O)c1cc(O)c(O)c(O)c1 [Octyl gallate]
- MFC (A. brasiliensis 16404; Aspergillus brasiliensis, 16404, 22.0° C.): > 300 µM
- MFC (A. brasiliensis 16404; Aspergillus brasiliensis, 16404, 57.5° C.): 160 µM
- MFC (P. italicum 983; Penicillium italicum, 983, 22.0° C.): 200 µM
- MFC (P. italicum 983; Penicillium italicum, 983, 57.5° C.): 100 µM
- MFC (P. griseofulvum 2159; Penicillium griseofulvum, 2159, 22.0° C.): > 300 µM
- MFC (P. griseofulvum 2159; Penicillium griseofulvum, 2159, 57.5° C.): 180 µM
- No. of seedlings germinated ([1]; OG 2 mM, 20° C., 20 min): 12
- No. of seedlings germinated ([1]; OG 2 mM, 20° C., 30 min): 12
- No. of seedlings germinated ([1]; OG 2 mM, 50° C., 20 min): 12
- No. of seedlings germinated ([1]; OG 2 mM, 50° C., 30 min): 10
- % Seed germination ([1]; OG 2 mM): 96 ± 8%
- No. of seedlings germinated ([1]; OG 3 mM, 20° C., 20 min): 12
- No. of seedlings germinated ([1]; OG 3 mM, 20° C., 30 min): 12
- No. of seedlings germinated ([1]; OG 3 mM, 50° C., 20 min): 12
- No. of seedlings germinated ([1]; OG 3 mM, 50° C., 30 min): 11
- % Seed germination ([1]; OG 3 mM): 98 ± 4%
- No. of seedlings germinated ([1]; OG 4 mM, 20° C., 20 min): 12
- No. of seedlings germinated ([1]; OG 4 mM, 20° C., 30 min): 12
- No. of seedlings germinated ([1]; OG 4 mM, 50° C., 20 min): 11
- No. of seedlings germinated ([1]; OG 4 mM, 50° C., 30 min): 11
- % Seed germination ([1]; OG 4 mM): 96 ± 5%
- germination rate of the crop seeds compared to the control ([1]; OG as low as 3 mM, mild heat 50° C., 20 min): not affected
- MBC (E. coli JM109; JM109, 22° C.): 300 µM
- MBC (E. coli JM109; JM109, 57.5° C.): 75 µM
- MBC (A. tumefaciens 4212; Agrobacterium tumefaciens, 4212, 22° C.): 200 µM
- MBC (A. tumefaciens 4212; Agrobacterium tumefaciens, 4212, 57.5° C.): 75 µM
- MFC (A. parasiticus 5862; Aspergillus parasiticus, 5862, 22.0° C.): > 300 µM
- MFC (A. parasiticus 5862; Aspergillus parasiticus, 5862, 57.5° C.): 300 µM
- MFC (A. parasiticus 2999; Aspergillus parasiticus, 2999, 22.0° C.): > 300 µM
- MFC (A. parasiticus 2999; Aspergillus parasiticus, 2999, 57.5° C.): 200 µM
- MBC ([2]; 22° C.): 250 µM
- MBC ([2]; 57.5° C.): 75 µM
- average MBC of OG ([2]; 57.5° C., listed as OG): 75* μM
- MFC (P. chrysogenum 824; Penicillium chrysogenum, 824, 22.0° C.): 250 µM
- MFC (P. chrysogenum 824; Penicillium chrysogenum, 824, 57.5° C.): 130 µM
